Measured values reported in PMC12434670 (Journal of Medicinal Chemistry, 2025).
Where two headings read alike, the source gives them in different places.

Assays:
[1] = test system: A/H1N1 virus A/PR/8/34 (PR8); assay: microbe, parasite or virus in culture; assay type: cell-based; conditions: Influenza A virus, MDCK
[2] = test system: A/H1N1 virus A/Virginia/ATCC3/2009 (Virg09); assay: microbe, parasite or virus in culture; assay type: cell-based, influenza A virus; conditions: for EC50: Influenza A virus, MDCK
A/H1N1 virus = assay: microbe, parasite or virus in culture; assay type: cell-based, influenza A virus
MDCK cells = conditions: dog
in vitro = conditions: dog
[3] = read-out: Antiviral EC50 for PR8 virus
[4] = read-out: Antiviral EC50 for Virg09 virus
[5] = read-out: Antiviral EC50 against A/H1N1 virus, PR8 strain, MTS
[6] = read-out: Antiviral EC50 against A/H1N1 virus, PR8 strain, Microscopy
[7] = read-out: Antiviral EC50 against A/H1N1 virus, Virg09 strain, MTS
[8] = read-out: Antiviral EC50 against A/H1N1 virus, Virg09 strain, Microscopy

| Compound | EC50 [1, 3] [µM] | EC50 [2, 4] [µM] | EC50 [1, 5] [µM] | EC50 [1, 6] [µM] | EC50 [2, 7] [µM] | EC50 [2, 8] [µM] | Cytotoxicity MCC, Microscopy (MDCK cells) [µM] | CC50 (in vitro) [µM] | other results |
| --- | --- | --- | --- | --- | --- | --- | --- | --- | --- |
| Cc1cc(CNC(=O)c2cc(Br)cc(C(F)(F)F)c2)c(C)s1 [Compound 24, 3-Bromo-N-[(2,5-dimethylthiophen-3-yl)methyl]-5-(trifluoromethyl)benzamide] | > 100 | > 100 |  |  |  |  |  |  | Antiviral activity against A/H1N1 virus (in words) (A/H1N1 virus): abolished the antiviral activity |
| Cc1cc(CNC(=O)c2cc(F)cc(F)c2)c(C)s1 [Compound 26, 3,5-Difluoro-N-[(2,5-dimethylthiophen-3-yl)methyl]benzamide] | > 100 | > 100 |  |  |  |  |  |  |  |
| Cc1cc(CNC(=O)c2cc(Cl)cc(Cl)c2)c(C)s1 [Compound 27, 3,5-Dichloro-N-[(2,5-dimethylthiophen-3-yl)methyl]benzamide] | > 100 | > 100 |  |  |  |  |  |  |  |
| Cc1cc(CNC(=O)c2cc(Br)cc(Br)c2)c(C)s1 [Compound 28, 3,5-Dibromo-N-[(2,5-dimethylthiophen-3-yl)methyl]benzamide] | > 100 | > 100 |  |  |  |  |  |  |  |
| Cc1cc(CNC(=O)c2cccc(F)c2)c(C)s1 [Compound 30, N-[(2,5-Dimethylthiophen-3-yl)methyl]-3-fluorobenzamide] | > 100 | > 100 |  |  |  |  |  |  |  |
| Cc1cc(CNC(=O)c2cccc(C(F)(F)F)c2)c(C)s1 [Compound 31, N-[(2,5-Dimethylthiophen-3-yl)methyl]-3-(trifluoromethyl)benzamide] | > 100 | > 100 |  |  |  |  |  |  |  |
| Cc1cc(CNC(=O)c2cccc(Cl)c2)c(C)s1 [Compound 32, 3-Chloro-N-[(2,5-dimethylthiophen-3-yl)methyl]benzamide] | > 100 | > 100 |  |  |  |  |  |  |  |
| Cc1cc(CNC(=O)c2cccc(Br)c2)c(C)s1 [Compound 33, 3-Bromo-N-[(2,5-dimethylthiophen-3-yl)methyl]benzamide] | > 100 | > 100 |  |  |  |  |  |  |  |
| Cc1cc(CNC(=O)c2cccc([N+](=O)[O-])c2)c(C)s1 [Compound 34, N-[(2,5-Dimethylthiophen-3-yl)methyl]-3-nitrobenzamide] | > 100 | > 100 |  |  |  |  |  |  |  |
| Cc1cc(CNC(=O)c2cc(F)c(F)c(C(F)(F)F)c2)c(C)s1 [Compound 35, N-((2,5-Dimethylthiophen-3-yl)methyl)-3,4-difluoro-5-(trifluoromethyl)benzamide] |  |  | 0.22 ± 0.03 | 0.86 ± 0.41 | 0.2 ± 0.05 | 0.89 ± 0.13 | >100 | > 100 |  |
| Cc1cc(CNC(=O)c2ccccc2)c(C)s1 [Compound 40, N-((2,5-Dimethylthiophen-3-yl)methyl)benzamide] | > 100 | > 100 |  |  |  |  |  |  |  |
| Cc1cc(CNC(=O)c2ccc(Cl)cc2)c(C)s1 [Compound 41, 4-Chloro-N-((2,5-dimethylthiophen-3-yl)methyl)benzamide] | > 100 | > 100 |  |  |  |  |  |  |  |
| Cc1ccc(C(=O)NCc2cc(C)sc2C)cc1 [Compound 42, N-((2,5-Dimethylthiophen-3-yl)methyl)-4-methylbenzamide] | > 100 | > 100 |  |  |  |  |  |  |  |
| COc1ccc(C(=O)NCc2cc(C)sc2C)cc1 [Compound 43, N-((2,5-Dimethylthiophen-3-yl)methyl)-4-methoxybenzamide] | > 100 | > 100 |  |  |  |  |  |  |  |
| Cc1cc(CNC(=O)c2ccc(Cl)c(Cl)c2)c(C)s1 [Compound 44, 3,4-Dichloro-N-((2,5-dimethylthiophen-3-yl)methyl)benzamide] | > 100 | > 100 |  |  |  |  |  |  |  |
| Cc1cc(CNC(=O)c2cc(F)cc(C(F)(F)F)c2)cs1 [Compound 45, 3-Fluoro-N-((5-methylthiophen-3-yl)methyl)-5-(trifluoromethyl)benzamide] |  |  | 0.68 ± 0.51 | 0.26 ± 0.02 | 0.39 ± 0.18 | 1.6 ± 0.5 | 78 ± 22 | 67 ± 1 |  |
| Cc1sccc1CNC(=O)c1cc(F)cc(C(F)(F)F)c1 [Compound 46, 3-Fluoro-N-((2-methylthiophen-3-yl)methyl)-5-(trifluoromethyl)benzamide] |  |  | 0.23 ± 0.08 | 0.17 ± 0.04 | 6.8 ± 6.5 | 8.3 ± 5.1 | 67 ± 33 | > 100 | ΔΔG (exp), change VF-57a → labelled compound [2]: 1.8 kcal/mol; ΔΔG (exp), change labelled compound → VF-57a [2]: –1.8 kcal/mol |

| Compound | EC50 [1, 3] [µM] | EC50 [2, 4] [µM] | EC50 [1, 5] [µM] | EC50 [1, 6] [µM] | EC50 [2, 7] [µM] | EC50 [2, 8] [µM] | Cytotoxicity MCC, Microscopy (MDCK cells) [µM] | CC50 (in vitro) [µM] | other results |
| --- | --- | --- | --- | --- | --- | --- | --- | --- | --- |
| O=C(NCc1ccsc1)c1cc(F)cc(C(F)(F)F)c1 [Compound 47, 3-Fluoro-N-(Thiophen-3-ylmethyl)-5-(trifluoromethyl)benzamide] |  |  | 0.42 ± 0.1 | 0.44 ± 0.16 | 7.2 ± 4.1 | 20 ± 8 | >100 | > 100 | ΔΔG (exp), change VF-57a → labelled compound [2]: 1.9 kcal/mol; ΔΔG (exp), change labelled compound → VF-57a [2]: –1.9 kcal/mol |
| Cc1cc(CNC(=O)c2cc(Cl)cc(C(F)(F)F)c2)cs1 [Compound 48, 3-Chloro-N-((5-methylthiophen-3-yl)methyl)-5-(trifluoromethyl)benzamide] |  |  | 0.34 ± 0.18 | 0.46 ± 0.14 | 0.15 ± 0.12 | 1.9 ± 1.1 | >100 | > 100 |  |
| Cc1sccc1CNC(=O)c1cc(Cl)cc(C(F)(F)F)c1 [Compound 49, 3-Chloro-N-((2-methylthiophen-3-yl)methyl)-5-(trifluoromethyl)benzamide] |  |  | 0.14 ± 0.04 | 0.14 ± 0.05 | 0.37 ± 0.16 | 0.48 ± 0.07 | 78 ± 22 | > 100 |  |
| O=C(NCc1ccsc1)c1cc(Cl)cc(C(F)(F)F)c1 [Compound 50, 3-Chloro-N-(Thiophen-3-ylmethyl)-5-(trifluoromethyl)benzamide] |  |  | 2 ± 1 | 1 ± 0.6 | 1.1 ± 0.5 | 2.1 | 100 ± 0 | 70 ± 2 | ΔΔG (exp), change VF-57a → labelled compound [2]: 0.8 kcal/mol; ΔΔG (exp), change labelled compound → VF-57a [2]: –0.8 kcal/mol |
| Cc1cc(CNC(=O)c2cc(F)c(F)c(C(F)(F)F)c2)cs1 [Compound 51, 3,4-Difluoro-N-((5-methylthiophen-3-yl)methyl)-5-(trifluoromethyl)benzamide] |  |  | 2.9 ± 1.1 | 3.5 ± 1.2 | 5.3 ± 0.8 | > 100 | 33 ± 0 | 24 ± 2 |  |
| Cc1cc(CNC(=O)c2cc(Cl)c(F)c(C(F)(F)F)c2)cs1 [Compound 52, 3-Chloro-4-fluoro-N-((5-methylthiophen-3-yl)methyl)-5-(trifluoromethyl)benzamide] |  |  | 8.5 ± 5.6 | 13 ± 8 | > 100 | > 100 | >100 | > 100 |  |
| Cc1cc(CNC(=O)c2cc(Cl)cc(C(F)(F)F)c2Cl)cs1 [Compound 53, 2,5-Dichloro-N-((5-methylthiophen-3-yl)methyl)-3-(trifluoromethyl)benzamide] |  |  | 17 ± 8 | > 100 | 31 ± 3 | > 100 | >100 | > 100 |  |
| Cc1cc(CNC(=O)c2cc(F)cc(C(F)(F)F)c2)c(C)o1 [Compound 54, N-((2,5-Dimethylfuran-3-yl)methyl)-3-fluoro-5-(trifluoromethyl)benzamide] |  |  | 0.47 ± 0.19 | 0.54 ± 0.17 | 0.54 ± 0.06 | 3.6 ± 2.8 | 100 ± 0 | 79 ± 5 |  |
| Cc1cc(CNC(=O)c2cc(Cl)cc(C(F)(F)F)c2)c(C)o1 [Compound 55, 3-Chloro-N-((2,5-dimethylfuran-3-yl)methyl)-5-(trifluoromethyl)benzamide] |  |  | 0.24 ± 0.08 | 0.54 ± 0.37 | 1.1 ± 0.3 | > 100 | 33 ± 0 | 29 |  |
| O=C(NCc1ccoc1)c1cc(F)cc(C(F)(F)F)c1 [Compound 56, 3-Fluoro-N-(Furan-3-ylmethyl)-5-(trifluoromethyl)benzamide] | > 100 | > 100 |  |  |  |  |  |  |  |
| O=C(NCc1cncs1)c1cc(F)cc(C(F)(F)F)c1 [Compound 57, 3-Fluoro-N-(Thiazol-5-ylmethyl)-5-(trifluoromethyl)benzamide] | > 100 | > 100 |  |  |  |  |  |  |  |
| O=C(NCc1ccon1)c1cc(F)cc(C(F)(F)F)c1 [Compound 58, 3-Fluoro-N-(Isoxazol-3-ylmethyl)-5-(trifluoromethyl)benzamide] | > 100 | > 100 |  |  |  |  |  |  |  |
| O=C(NCc1ccncc1)c1cc(F)cc(C(F)(F)F)c1 [Compound 59, 3-Fluoro-N-(Pyridin-4-ylmethyl)-5-(trifluoromethyl)benzamide] | > 100 | > 100 |  |  |  |  |  |  |  |
| O=C(NCc1cc[nH]n1)c1cc(F)cc(C(F)(F)F)c1 [Compound 60, N-((1H-Pyrazol-3-Yl)methyl)-3-fluoro-5-(trifluoromethyl)benzamide] | > 100 | > 100 |  |  |  |  |  |  |  |
| O=C(NCc1cocn1)c1cc(F)cc(C(F)(F)F)c1 [Compound 61, 3-Fluoro-N-(Oxazol-4-ylmethyl)-5-(trifluoromethyl)benzamide] | > 100 | > 100 |  |  |  |  |  |  |  |
| O=C(NCc1cscn1)c1cc(F)cc(C(F)(F)F)c1 [Compound 62, 3-Fluoro-N-(Thiazol-4-ylmethyl)-5-(trifluoromethyl)benzamide] | > 100 | > 100 |  |  |  |  |  |  |  |
| NC(=O)c1ncn([C@@H]2O[C@H](CO)[C@@H](O)[C@H]2O)n1 [Ribavirin, reference compound] |  |  | 38 ± 3 | 27 ± 1 | 20 ± 2 | 25 | 80 ± 20 | > 250 |  |
